Reference: patent publication US20150011423A1, “MEANS AND METHODS FOR ASSESSING KIDNEY TOXICITY” (BASF SE, priority 2011, published 2015)
Marks after values point to notes of the source that are not given here.

System: rats
Assay: 28-day repeated dose study in rats with mass spectrometry-based plasma metabolite profiling (GC-MS, LC-MS, SPE-LC-MS); treatment ratios versus control
Details: plasma
[1] = female rats, day 7, high dose, Table 4a inhibition of weak acid excretion
[2] = female rats, day 7, high dose, Table 4b inhibition of weak acid excretion
[3] = female rats, day 14, high dose, Table 4a inhibition of weak acid excretion
[4] = female rats, day 14, high dose, Table 4b inhibition of weak acid excretion
[5] = female rats, day 28, high dose, Table 4a inhibition of weak acid excretion
[6] = female rats, day 28, high dose, Table 4b inhibition of weak acid excretion
[7] = male rats, day 7, high dose, Table 4c inhibition of weak acid excretion
[8] = male rats, day 7, high dose, Table 4d inhibition of weak acid excretion
[9] = male rats, day 14, high dose, Table 4c inhibition of weak acid excretion
[10] = male rats, day 14, high dose, Table 4d inhibition of weak acid excretion
[11] = male rats, day 28, high dose, Table 4c inhibition of weak acid excretion
[12] = male rats, day 28, high dose, Table 4d inhibition of weak acid excretion
[13] = male rats, day 7, high dose, Table 6b ACE inhibitor induced like toxicity
[14] = male rats, day 14, high dose, Table 6b ACE inhibitor induced like toxicity
[15] = male rats, day 28, high dose, Table 6b ACE inhibitor induced like toxicity

Cc1cc(Cl)ccc1OCC(=O)O [MCPA]
Glycerol, lipid fraction, treatment ratio versus control [1]: 1.69 *
Linoleic acid (C18:cis[9,12]2), treatment ratio versus control [1]: 1.66 *
Lysophosphatidylcholine (C18:2), treatment ratio versus control [1]: 1.38^
Phosphatidylcholine (C16:0, C16:0), treatment ratio versus control [1]: 1.52 *
Phosphatidylcholine (C16:0, C18:2), treatment ratio versus control [1]: 1.66 *
Phosphatidylcholine (C16:0, C20:5), treatment ratio versus control [1]: 2.03 *
Phosphatidylcholine (C16:1, C18:2), treatment ratio versus control [1]: 2.92 *
Phosphatidylcholine (C18:0, C18:1), treatment ratio versus control [1]: 1.57 *
Phosphatidylcholine (C18:1, C18:2), treatment ratio versus control [1]: 1.68^
gamma-Linolenic acid (C18:cis[6,9,12]3), treatment ratio versus control [1]: 4.23 *
Arginine, treatment ratio versus control [2]: 0.62 *
Indole-3-lactic acid, treatment ratio versus control [2]: 0.24 *
Ketoleucine, treatment ratio versus control [2]: 0.42 *
Proline, treatment ratio versus control [2]: 0.61 *
Tryptophan, treatment ratio versus control [2]: 0.17 *
trans-4-Hydroxyproline, treatment ratio versus control [2]: 0.57^
Glycerol, lipid fraction, treatment ratio versus control [3]: 1.38 *
Linoleic acid (C18:cis[9,12]2), treatment ratio versus control [3]: 1.36 *
Lysophosphatidylcholine (C18:2), treatment ratio versus control [3]: 1.45 *
Phosphatidylcholine (C16:0, C16:0), treatment ratio versus control [3]: 1.8 *
Phosphatidylcholine (C16:0, C18:2), treatment ratio versus control [3]: 1.82 *
Phosphatidylcholine (C16:0, C20:5), treatment ratio versus control [3]: 2.09 *
Phosphatidylcholine (C16:1, C18:2), treatment ratio versus control [3]: 2.88 *
Phosphatidylcholine (C18:0, C18:1), treatment ratio versus control [3]: 1.74 *
Phosphatidylcholine (C18:1, C18:2), treatment ratio versus control [3]: 2.12 *
gamma-Linolenic acid (C18:cis[6,9,12]3), treatment ratio versus control [3]: 2.93 *
Arginine, treatment ratio versus control [4]: 0.58 *
Indole-3-lactic acid, treatment ratio versus control [4]: 0.24 *
Ketoleucine, treatment ratio versus control [4]: 0.21 *
Proline, treatment ratio versus control [4]: 0.45 *
Tryptophan, treatment ratio versus control [4]: 0.18 *
trans-4-Hydroxyproline, treatment ratio versus control [4]: 0.47 *
Glycerol, lipid fraction, treatment ratio versus control [5]: 1.6 *
Linoleic acid (C18:cis[9,12]2), treatment ratio versus control [5]: 1.28 *
Lysophosphatidylcholine (C18:2), treatment ratio versus control [5]: 1.35 *
Phosphatidylcholine (C16:0, C16:0), treatment ratio versus control [5]: 1.78 *
Phosphatidylcholine (C16:0, C18:2), treatment ratio versus control [5]: 1.45 *
Phosphatidylcholine (C16:0, C20:5), treatment ratio versus control [5]: 1.61 *
Phosphatidylcholine (C16:1, C18:2), treatment ratio versus control [5]: 2.45 *
Phosphatidylcholine (C18:0, C18:1), treatment ratio versus control [5]: 1.56 *
Phosphatidylcholine (C18:1, C18:2), treatment ratio versus control [5]: 1.78 *
gamma-Linolenic acid (C18:cis[6,9,12]3), treatment ratio versus control [5]: 2.99 *
Arginine, treatment ratio versus control [6]: 0.58 *
Indole-3-lactic acid, treatment ratio versus control [6]: 0.23 *
Ketoleucine, treatment ratio versus control [6]: 0.15 *
Proline, treatment ratio versus control [6]: 0.42 *
Tryptophan, treatment ratio versus control [6]: 0.16 *
trans-4-Hydroxyproline, treatment ratio versus control [6]: 0.6 *
3-Indoxylsulfate, treatment ratio versus control [7]: 0.72^
Aspartate, treatment ratio versus control [7]: 0.58 *
Ceramide (d18:1, C24:0), treatment ratio versus control [7]: 1.2
Cholesterolester No 01, treatment ratio versus control [7]: 0.97^
Lysophosphatidylethanolamine (C22:5), treatment ratio versus control [7]: 1.16^
Phosphatidylcholine (C16:0, C20:5), treatment ratio versus control [7]: 1.73 *
gamma-Linolenic acid (C18:cis[6,9,12]3), treatment ratio versus control [7]: 1.69 *
Arachidonic acid (C20:cis[5,8,11,14]4), treatment ratio versus control [8]: 0.27 *
Arginine, treatment ratio versus control [8]: 0.72 *
Aspartate, treatment ratio versus control [8]: 0.58 *
Choline plasmalogen (C18, C20:4), treatment ratio versus control [8]: 0.64 *
Cytosine, treatment ratio versus control [8]: 0.63 *
Glucose, treatment ratio versus control [8]: 0.75 *
Indole-3-lactic acid, treatment ratio versus control [8]: 0.36 *
Lysine, treatment ratio versus control [8]: 0.4 *
Lysophosphatidylcholine (C18:0), treatment ratio versus control [8]: 0.81 *
Methionine, treatment ratio versus control [8]: 0.66 *
Nervonic acid (C24:cis[15]1), treatment ratio versus control [8]: 0.67 *
Phosphatidylcholine (C18:0, C20:4), treatment ratio versus control [8]: 0.36 *
Ribal, treatment ratio versus control [8]: 0.94 *
3-Indoxylsulfate, treatment ratio versus control [9]: 1.53 *
Aspartate, treatment ratio versus control [9]: 1.01^
Ceramide (d18:1, C24:0), treatment ratio versus control [9]: 2.39 *
Cholesterolester No 01, treatment ratio versus control [9]: 1.27 *
Lysophosphatidylethanolamine (C22:5), treatment ratio versus control [9]: 1.08^
Phosphatidylcholine (C16:0, C20:5), treatment ratio versus control [9]: 1.82 *
gamma-Linolenic acid (C18:cis[6,9,12]3), treatment ratio versus control [9]: 2.68 *
Arachidonic acid (C20:cis[5,8,11,14]4), treatment ratio versus control [10]: 0.42 *
Arginine, treatment ratio versus control [10]: 0.57 *
Aspartate, treatment ratio versus control [10]: 1.01^
Choline plasmalogen (C18, C20:4), treatment ratio versus control [10]: 0.76 *
Cytosine, treatment ratio versus control [10]: 0.63 *
Glucose, treatment ratio versus control [10]: 0.72 *
Indole-3-lactic acid, treatment ratio versus control [10]: 0.38
Lysine, treatment ratio versus control [10]: 0.3 *
Lysophosphatidylcholine (C18:0), treatment ratio versus control [10]: 0.83 *
Methionine, treatment ratio versus control [10]: 0.59 *
Nervonic acid (C24:cis[15]1), treatment ratio versus control [10]: 0.74 *
Phosphatidylcholine (C18:0, C20:4), treatment ratio versus control [10]: 0.55 *
Ribal, treatment ratio versus control [10]: 0.89 *
3-Indoxylsulfate, treatment ratio versus control [11]: 1.92 *
Aspartate, treatment ratio versus control [11]: 0.69^
Ceramide (d18:1, C24:0), treatment ratio versus control [11]: 1.72 *
Cholesterolester No 01, treatment ratio versus control [11]: 1.32 *
Lysophosphatidylethanolamine (C22:5), treatment ratio versus control [11]: 1.1
Phosphatidylcholine (C16:0, C20:5), treatment ratio versus control [11]: 2.11 *
gamma-Linolenic acid (C18:cis[6,9,12]3), treatment ratio versus control [11]: 2.54 *
Arachidonic acid (C20:cis[5,8,11,14]4), treatment ratio versus control [12]: 0.26 *
Arginine, treatment ratio versus control [12]: 0.68 *
Aspartate, treatment ratio versus control [12]: 0.69 *
Choline plasmalogen (C18, C20:4), treatment ratio versus control [12]: 0.45 *
Cytosine, treatment ratio versus control [12]: 0.6 *
Glucose, treatment ratio versus control [12]: 0.6 *
Indole-3-lactic acid, treatment ratio versus control [12]: 0.3 *
Lysine, treatment ratio versus control [12]: 0.33 *
Lysophosphatidylcholine (C18:0), treatment ratio versus control [12]: 0.73 *
Methionine, treatment ratio versus control [12]: 0.64 *
Nervonic acid (C24:cis[15]1), treatment ratio versus control [12]: 0.76 *
Phosphatidylcholine (C18:0, C20:4), treatment ratio versus control [12]: 0.24 *
Ribal, treatment ratio versus control [12]: 0.77 *

Oc1c(Cl)c(Cl)c(Cl)c(Cl)c1Cl [Pentachlorophenol]
Glycerol, lipid fraction, treatment ratio versus control [1]: 1.56 *
Linoleic acid (C18:cis[9,12]2), treatment ratio versus control [1]: 1.35 *
Lysophosphatidylcholine (C18:2), treatment ratio versus control [1]: 1.32 *
Phosphatidylcholine (C16:0, C16:0), treatment ratio versus control [1]: 1.04^
Phosphatidylcholine (C16:0, C18:2), treatment ratio versus control [1]: 1.02^
Phosphatidylcholine (C16:0, C20:5), treatment ratio versus control [1]: 1.05 *
Phosphatidylcholine (C16:1, C18:2), treatment ratio versus control [1]: 0.87^
Phosphatidylcholine (C18:0, C18:1), treatment ratio versus control [1]: 0.98^
Phosphatidylcholine (C18:1, C18:2), treatment ratio versus control [1]: 0.85^
gamma-Linolenic acid (C18:cis[6,9,12]3), treatment ratio versus control [1]: 0.78 *
Arginine, treatment ratio versus control [2]: 0.56 *
Indole-3-lactic acid, treatment ratio versus control [2]: 0.62 *
Ketoleucine, treatment ratio versus control [2]: 0.6 *
Proline, treatment ratio versus control [2]: 0.73 *
Tryptophan, treatment ratio versus control [2]: 0.6 *
trans-4-Hydroxyproline, treatment ratio versus control [2]: 0.87 *
Glycerol, lipid fraction, treatment ratio versus control [3]: 2.38 *
Linoleic acid (C18:cis[9,12]2), treatment ratio versus control [3]: 1.8 *
Lysophosphatidylcholine (C18:2), treatment ratio versus control [3]: 1.41 *
Phosphatidylcholine (C16:0, C16:0), treatment ratio versus control [3]: 1.25 *
Phosphatidylcholine (C16:0, C18:2), treatment ratio versus control [3]: 1.34 *
Phosphatidylcholine (C16:0, C20:5), treatment ratio versus control [3]: 1.57 *
Phosphatidylcholine (C16:1, C18:2), treatment ratio versus control [3]: 1.32 *
Phosphatidylcholine (C18:0, C18:1), treatment ratio versus control [3]: 1.54 *
Phosphatidylcholine (C18:1, C18:2), treatment ratio versus control [3]: 1.4 *
gamma-Linolenic acid (C18:cis[6,9,12]3), treatment ratio versus control [3]: 1.81^
Arginine, treatment ratio versus control [4]: 0.72^
Indole-3-lactic acid, treatment ratio versus control [4]: 0.65 *
Ketoleucine, treatment ratio versus control [4]: 0.64 *
Proline, treatment ratio versus control [4]: 0.74 *
Tryptophan, treatment ratio versus control [4]: 0.62 *
trans-4-Hydroxyproline, treatment ratio versus control [4]: 0.92^
Glycerol, lipid fraction, treatment ratio versus control [5]: 1.61 *
Linoleic acid (C18:cis[9,12]2), treatment ratio versus control [5]: 1.73 *
Lysophosphatidylcholine (C18:2), treatment ratio versus control [5]: 1.66 *
Phosphatidylcholine (C16:0, C16:0), treatment ratio versus control [5]: 1.1 *
Phosphatidylcholine (C16:0, C18:2), treatment ratio versus control [5]: 1.49 *
Phosphatidylcholine (C16:0, C20:5), treatment ratio versus control [5]: 1.67 *
Phosphatidylcholine (C16:1, C18:2), treatment ratio versus control [5]: 1.54 *
Phosphatidylcholine (C18:0, C18:1), treatment ratio versus control [5]: 1.41 *
Phosphatidylcholine (C18:1, C18:2), treatment ratio versus control [5]: 1.3 *
gamma-Linolenic acid (C18:cis[6,9,12]3), treatment ratio versus control [5]: 3.23 *
Arginine, treatment ratio versus control [6]: 0.44 *
Indole-3-lactic acid, treatment ratio versus control [6]: 0.49 *
Ketoleucine, treatment ratio versus control [6]: 0.6 *
Proline, treatment ratio versus control [6]: 0.74 *
Tryptophan, treatment ratio versus control [6]: 0.54 *
trans-4-Hydroxyproline, treatment ratio versus control [6]: 0.94 *

CCOC(=O)[C@H](CCc1ccccc1)N[C@@H](C)C(=O)N1[C@H](C(=O)O)C[C@@H]2CCC[C@@H]21 [Ramipril]
Cytosine, treatment ratio versus control [13]: 0.7 *
Glutamate, treatment ratio versus control [13]: 0.92 *
Glycine, treatment ratio versus control (male rats, day 14, high dose, Table 6a ACE inhibitor induced like toxicity): 1.5 *
Cytosine, treatment ratio versus control [14]: 0.85 *
Glutamate, treatment ratio versus control [14]: 0.71 *
Cytosine, treatment ratio versus control [15]: 0.91^
Glutamate, treatment ratio versus control [15]: 0.61 *
